Test results taken from ChEMBL document CHEMBL1201862, “PubChem BioAssay data set” (2004).
Active and inactive are the calls of the source.

Columns and labels:
[1] = cells
[2] = target: Major prion protein (Homo sapiens, UniProt P04156); format: functional, cell-based
[3] = viability of uninfected HEp-2 cells – cell-based, HTS, cytotoxicity control for RSV inhibitor project, dose response (AID 2410); format: functional; conditions: human respiratory syncytial virus
[4] = fluconazole-exposed Candida albicans growth modulators – fluorescence, retest, confirmation (AID 2467); format: functional, cell-based
[5] = viability loss in HepG2 liver cells – cell-based, ATP luminescence, cherry-pick, set 6, cytotoxicity control, dose response (AID 1053125); format: functional
[6] = NIH-3T3 fibroblast cytotoxicity, dose response, cytotoxicity control, cell-based, fluorescence, Alamar Blue, secondary assay (AID 2327); format: functional;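 further: NIH-3T3 mouse fibroblasts cultured with fluconazole at 8 µg/mL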
[7] = target: T1, Heat shock factor protein 1 (Mus musculus, UniProt P38532); assay: enhancement of HSF1-driven luciferase signal – cell-based, NIH3T3, luminescence, dose retest, confirmation (AID 435004); format: functional;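 further: stress induced by proteasome inhibitor MG132 added 30 min after compound; luciferase reporter driven by HSF1 response element in NIH3T3 cells; actives raise luminescence as potentiators of the MG132 stress response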
T1 sequence (P38532 whole entry): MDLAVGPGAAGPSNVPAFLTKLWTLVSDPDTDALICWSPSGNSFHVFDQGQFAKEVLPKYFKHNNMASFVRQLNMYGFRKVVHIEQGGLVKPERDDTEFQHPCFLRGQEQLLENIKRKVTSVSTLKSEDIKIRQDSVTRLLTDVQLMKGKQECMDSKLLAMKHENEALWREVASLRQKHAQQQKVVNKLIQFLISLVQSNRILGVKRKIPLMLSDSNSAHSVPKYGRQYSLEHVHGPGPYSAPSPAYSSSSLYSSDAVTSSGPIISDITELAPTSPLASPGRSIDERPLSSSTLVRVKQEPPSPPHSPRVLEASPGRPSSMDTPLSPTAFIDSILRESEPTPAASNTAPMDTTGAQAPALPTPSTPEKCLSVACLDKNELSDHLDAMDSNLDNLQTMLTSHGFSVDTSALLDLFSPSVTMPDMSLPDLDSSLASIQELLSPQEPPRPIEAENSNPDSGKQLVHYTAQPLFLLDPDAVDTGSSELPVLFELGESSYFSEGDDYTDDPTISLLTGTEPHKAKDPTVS

[8] = cells; conditions: HEK293
[9] = cells; conditions: A549
[10] = general cell-killing toxicity readout – plate reader, dry powder samples, cytotoxicity control for PAX8 inhibitor project, dose response (AID 743021); format: functional, cell-based
[11] = OVCAR8 cell viability loss – plate reader, dry powder samples, PAX8 project, dose response (AID 743197); format: functional, cell-based; conditions: OVCAR-8
[12] = target: Paired box protein Pax-8 (Homo sapiens, UniProt Q06710); assay: PAX8 transcriptional activity inhibition in RMG-I – RMG-I cells, luciferase, cherry-pick, dose response (AID 687027); format: functional, cell-based;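 further: luciferase reporter driven by Pax8 target thyroperoxidase promoter measured by SteadyGlo luminescence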
[13] = reduction of Shn3 3'UTR-driven luciferase in osteoblasts – cell-based, Clone20 osteoblasts, firefly luciferase, cherry-picked, dose response (AID 624132); format: functional;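 further: firefly luciferase luminescence from reporter carrying the Shn3 3'UTR in osteoblasts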
[14] = Fluorescence-based cell-based high throughput dose response assay for inhibitors of the interaction of nucleotide-binding oligomerization domain containing 2 (NOD2) and the receptor-interacting serine-threonine kinase 2 (RIPK2).; format: functional; conditions: Homo sapiens
[15] = target: COUP transcription factor 2 (Homo sapiens, UniProt P24468); assay: Luminescence-based cell-based high throughput dose response assay to identify inhibitors of COUP-TFII (NR2F2).; format: functional;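 further: HEK293 cells transiently cotransfected with COUP-TFII expression vector and reporter; luciferase reporter luminescence driven by COUP-TFII from the pX2-168 reporter plasmid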
[16] = blockers of bursicon-stimulated LGR2 cAMP reporter – cell-based, HEK293, CRE-luciferase reporter, cherry pick, set 2, dose response (AID 743343); format: functional;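 further: transfected cells were stimulated with diluted bursicon conditioned medium after compound addition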
[17] = toxicity toward HepG2 liver cells – cell-based, plate reader, cherry-pick, antagonist series, cytotoxicity control, dose response (AID 743416); format: functional
[18] = non-specific 3'UTR reporter inhibition in Clone20-Shn3RL – cell-based, Renilla luciferase, cherry-picked, counter-screen for Shn3 inhibitor project, dose response (AID 624133); format: functional
[19] = A549 cell cytotoxicity, dose response, cytotoxicity control, plate reader, cherry-pick, antagonist series (AID 743412); format: functional, cell-based
[20] = blockade of melanocortin 4 receptor signaling – cell-based, plate reader, cherry pick, counter-screen for LGR2 antagonist project, dose response (AID 743444); format: functional;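 further: transfected HEK 293 cells stimulated with alpha-MSH peptide; potency of inhibitors of the alpha-MSH evoked signal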
[21] = viability loss in HEK293 cells – cell-based, plate reader, cherry-picked samples, cytotoxicity control, dose response (AID 743446); format: functional
[22] = viability loss in HepG2 hepatoma cells – cell-based, cherry-picks, set 5, cytotoxicity control, dose response (AID 1053118); format: functional
[23] = target: DNA (cytosine-5)-methyltransferase 1 (Homo sapiens, UniProt P26358); assay: inhibition of DNA methylation by DNMT1 – biochemical, fluorescent molecular beacon, confirmation (AID 602386); format: functional
[24] = target: Glucose-6-phosphate 1-dehydrogenase (Homo sapiens, UniProt P11413); assay: inhibition of Homo sapiens G6PD, dose series – biochemical, fluorescence, selectivity assay for P. falciparum G6PD inhibitor project, dose response (AID 504792); format: functional
[25] = viability loss in THP-1 monocytes – THP-1 cells, cytotoxicity control for Vif-APOBEC3G degradation inhibitor project, dose response (AID 1117359); format: functional; conditions: THP-1
[26] = target: Histone-lysine N-methyltransferase NSD2 (Homo sapiens, UniProt O96028); format: biochemical
[27] = target: Albumin (Bos taurus, UniProt P02769); assay: Counterscreen for inhibitors of T-cell receptor (TCR)-CD3 interaction: Fluorescence-based biochemical high throughput dose response assay to identify inhibitors of T-cell receptor (TCR)-CD3 interaction using a TAMRA-labeled BSA probe.; format: functional
[28] = target: T2, Ubiquitin-conjugating enzyme E2 N (Homo sapiens, UniProt P61088); format: functional;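 further: Dose-response confirmation in a TR-FRET assay detecting UBC13-driven polyubiquitin chain formation, inhibition measured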
T2 sequence (P61088 whole entry): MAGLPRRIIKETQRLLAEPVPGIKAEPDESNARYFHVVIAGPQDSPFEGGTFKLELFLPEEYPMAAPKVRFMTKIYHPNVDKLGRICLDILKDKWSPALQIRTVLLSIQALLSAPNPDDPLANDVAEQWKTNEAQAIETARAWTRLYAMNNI

[29] = target: DNA repair protein RAD52 homolog (Homo sapiens, UniProt P43351); format: functional, biochemical
[30] = tested on: H9c2; assay: cells; format: functional, cell-based; conditions: Rattus norvegicus, H9c2, Myocardium;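 further: confirmatory concentration-response retest of ultra-high-throughput screening hits for modulation of myocardial damage; cell death induced by hydrogen peroxide oxidative stress; compound pretreatment for 60 min then peroxide exposure for 2 h; potency is for protecting the cells against peroxide damage rather than for killing them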
[31] = target: Cytochrome P450 2C9 (Homo sapiens, UniProt P11712)

In the case of `COc1ccc(-c2nc3ccc(Br)cn3c2Cc2cccc(Cl)c2)cc1OC`, the IC50 [1] is reported as > 138 µM (inactive) and the IC50 [2] is reported as 5.35 µM (active).
For `N#CC(C#N)=C1C=CC=CN1/C(=C\c1ccccc1)C(=O)c1cccs1`, the CC50 [3] was 21.6 µM (active), the EC50 [4] was > 38 µM (not active) and the AC50 [5] was 49.7 µM (active). The EC50 [6] was 14.3 µM (active), the EC50 [7] was 4.04 µM (active) and the AC50 [8] was 22.1 µM (active). For the same compound, the AC50 [9] was > 52 µM (inactive).
With `COc1ccccc1C#Cc1ccc2c(c1)O[C@@H](CN(C)Cc1ccncc1)[C@H](C)CN([C@@H](C)CO)S2(=O)=O` the AC50 [10] was 33.2 µM (active), the AC50 [11] was 33 µM (active) and the AC50 [12] was 2.84 µM (active).
For `CC1CC(C)(O)CC(C(O)CC2CC(=O)NC(=O)C2)C1=O` (stereo not drawn) [RESACTIN A], the AC50 [13] was 0.339 µM (active), the IC50 [14] was 49.7 µM (inactive) and the IC50 [15] was 0.36 µM (active). For the same compound, the AC50 [16] was 0.441 µM (active), the AC50 [17] was 0.945 µM (active) and the AC50 [18] was 6.15 µM (active). The AC50 [19] was 0.424 µM (active), the AC50 [20] was 1.14 µM (active) and the AC50 [21] was 0.757 µM (active). The AC50 [12] was < 0.26 µM (active).
In the case of `CO[C@@H]1CN(C)C(=O)c2cc(NC(=O)Nc3ccc(Cl)c(Cl)c3)ccc2OC[C@H](C)NC[C@@H]1C`, the AC50 [22] is reported as > 52 µM (inactive).
With `COC1=C(N)C(=O)c2nc(C)ccc2C1=O` the IC50 [23] was 4.94 µM (active), the IC50 [24] was 59.6 µM (inactive) and the CC50 [25] was 20.8 µM (active). For the same compound, the AC50 [26] was 0.61 µM (active).
For `CNC(=S)NNC(=O)c1cccn(Cc2ccc(Cl)cc2Cl)c1=O`, the IC50 [27] was > 94.1 µM (inactive).
In the case of `CCC[C@@H](CN1CCC[C@H]1CN1C(N)=NC[C@H]1CC(C)C)N1C[C@@H](Cc2ccccc2)N(CCCC2CCCC2)C1=N`, the IC50 [28] is reported as > 20 µM (inactive) and the AC50 [29] is reported as 19.5 µM (active).
For `Nc1ncc(-c2ccccc2)n1CC1CCCO1` (stereo not drawn), the IC50 [30] was > 79 µM (inactive), the AC50 [31] was 14.1 µM (inconclusive) and the AC50 [26] was > 20 µM (inactive).
